In patent US20100099561A1, “HETEROBICYCLIC ALKYLTHIO-BRIDGED ISOXAZOLINES” (E.I. DU PONT DE NEMOURS AND COMPANY, priority 2008, published 2010):

What was measured:
Assay type in all cases: in vivo
[1] = tested on: barnyardgrass (Echinochloa crus-galli); assay: Test A preemergence, barnyardgrass; conditions: 0 to 100 scale (0 no effect, 100 complete control)
Excerpt: (§1) Seeds of barnyardgrass (Echinochloa crus-galli), large crabgrass (Digitaria sanguinalis), giant foxtail (Setaria faberi), morningglory (Ipomoea spp.), pigweed (Amaranthus retroflexus), velvetleaf (Abutilon theophrasti), wheat (Triticum aestivum), and corn (Zea mays) were planted into a blend of loam soil and sand and treated preemergence with a directed soil spray using test chemicals formulated in a non-phytotoxic solvent mixture which included a surfactant. At the same time these species were also treated with postemergence applications of test compounds formulated in the same manner. Plants ranged in height from two to ten cm and were in the one- to two-leaf stage for the postemergence treatment. Treated plants and untreated controls were maintained in a greenhouse for approximately ten days, after which time all treated plants were compared to untreated controls and visually evaluated for injury. Plant response ratings, summarized in Table A, are based on a 0 to 100 scale where 0 is no effect and 100 is complete control. A dash (-) response means no test result.

[2] = tested on: large crabgrass (Digitaria sanguinalis); assay: Test A preemergence, large crabgrass; conditions: 0 to 100 scale (0 no effect, 100 complete control)
Excerpt: as §1

[3] = tested on: giant foxtail (Setaria faberi); assay: Test A preemergence, giant foxtail; conditions: 0 to 100 scale (0 no effect, 100 complete control)
Excerpt: as §1

[4] = tested on: morningglory (Ipomoea spp.); assay: Test A preemergence, morningglory; conditions: 0 to 100 scale (0 no effect, 100 complete control)
Excerpt: as §1

[5] = tested on: pigweed (Amaranthus retroflexus); assay: Test A preemergence, pigweed; conditions: 0 to 100 scale (0 no effect, 100 complete control)
Excerpt: as §1

[6] = tested on: velvetleaf (Abutilon theophrasti); assay: Test A preemergence, velvetleaf; conditions: 0 to 100 scale (0 no effect, 100 complete control)
Excerpt: as §1

[7] = tested on: wheat (Triticum aestivum); assay: Test A preemergence, wheat; conditions: 0 to 100 scale (0 no effect, 100 complete control)
Excerpt: as §1

corn (Zea mays) [8] = assay: Test A preemergence, corn; conditions: 0 to 100 scale (0 no effect, 100 complete control)
Excerpt: as §1

[9] = tested on: barnyardgrass (Echinochloa crus-galli); assay: Test A postemergence, barnyardgrass; conditions: 0 to 100 scale (0 no effect, 100 complete control)
Excerpt: as §1

[10] = tested on: large crabgrass (Digitaria sanguinalis); assay: Test A postemergence, large crabgrass; conditions: 0 to 100 scale (0 no effect, 100 complete control)
Excerpt: as §1

[11] = tested on: giant foxtail (Setaria faberi); assay: Test A postemergence, giant foxtail; conditions: 0 to 100 scale (0 no effect, 100 complete control)
Excerpt: as §1

[12] = tested on: morningglory (Ipomoea spp.); assay: Test A postemergence, morningglory; conditions: 0 to 100 scale (0 no effect, 100 complete control)
Excerpt: as §1

[13] = tested on: pigweed (Amaranthus retroflexus); assay: Test A postemergence, pigweed; conditions: 0 to 100 scale (0 no effect, 100 complete control)
Excerpt: as §1

[14] = tested on: velvetleaf (Abutilon theophrasti); assay: Test A postemergence, velvetleaf; conditions: 0 to 100 scale (0 no effect, 100 complete control)
Excerpt: as §1

[15] = tested on: wheat (Triticum aestivum); assay: Test A postemergence, wheat; conditions: 0 to 100 scale (0 no effect, 100 complete control)
Excerpt: as §1

corn (Zea mays) [16] = assay: Test A postemergence, corn; conditions: 0 to 100 scale (0 no effect, 100 complete control)
Excerpt: as §1

rice (Oryza sativa) = assay: Test B flooded paddy test, rice; conditions: Flood, scale 0 to 100
Excerpt: (§2) Plant species in the flooded paddy test consisted of rice (Oryza sativa), umbrella sedge (Cyperus difformis), ducksalad (Heteranthera limosa) and barnyardgrass (Echinochloa crus-galli) grown to the 2-leaf stage for testing. At time of treatment, test pots were flooded to 3 cm above the soil surface, treated by application of test compounds directly to the paddy water, and then maintained at that water depth for the duration of the test. Treated plants and controls were maintained in a greenhouse for 13 to 15 days, after which time all species were compared to controls and visually evaluated. Plant response ratings, summarized in Table B, are based on a scale of 0 to 100 where 0 is no effect and 100 is complete control. A dash (-) response means no test result.

[17] = tested on: umbrella sedge (Cyperus difformis); assay: Test B flooded paddy test, umbrella sedge; conditions: Flood, scale 0 to 100
Excerpt: as §2

[18] = tested on: ducksalad (Heteranthera limosa); assay: Test B flooded paddy test, ducksalad; conditions: Flood, scale 0 to 100
Excerpt: as §2

[19] = tested on: barnyardgrass (Echinochloa crus-galli); assay: Test B flooded paddy test, barnyardgrass; conditions: Flood
Excerpt: as §2

In the case of `CC1(C)CC(S(=O)(=O)Cc2c(C(F)(F)C(F)(F)F)nc3n(c2=O)CCCO3)=NO1` [Compound 55], the “Plant response rating, Barnyardgrass” value ([1]; 125 g ai/ha) is reported as 50, the “Plant response rating, Barnyardgrass” value ([1]; 500 g ai/ha) is reported as 80 and the “Plant response rating, Crabgrass, Large” value ([2]; 125 g ai/ha) is reported as 0. For the same compound, the “Plant response rating, Crabgrass, Large” value ([2]; 500 g ai/ha) was 90, the “Plant response rating, Foxtail, Giant” value ([3]; 125 g ai/ha) was 80 and the “Plant response rating, Foxtail, Giant” value ([3]; 500 g ai/ha) was 90. For the same compound, the “Plant response rating, Morningglory” value ([4]; 125 g ai/ha) was 0, the “Plant response rating, Morningglory” value ([4]; 500 g ai/ha) was 50 and the “Plant response rating, Pigweed” value ([5]; 125 g ai/ha) was 0. The “Plant response rating, Pigweed” value ([5]; 500 g ai/ha) was 40, the “Plant response rating, Velvetleaf” value ([6]; 125 g ai/ha) was 0 and the “Plant response rating, Velvetleaf” value ([6]; 500 g ai/ha) was 30. The “Plant response rating, Wheat” value ([7]; 125 g ai/ha) was 0, the “Plant response rating, Wheat” value ([7]; 500 g ai/ha) was 20 and the “Plant response rating, Corn” value (corn (Zea mays) [8]; 125 g ai/ha) was 0. For the same compound, the “Plant response rating, Corn” value (corn (Zea mays) [8]; 500 g ai/ha) was 0, the “Plant response rating, Barnyardgrass” value ([9]; 125 g ai/ha) was 70 and the “Plant response rating, Barnyardgrass” value ([9]; 500 g ai/ha) was 90. The “Plant response rating, Crabgrass, Large” value ([10]; 125 g ai/ha) was 30, the “Plant response rating, Crabgrass, Large” value ([10]; 500 g ai/ha) was 70 and the “Plant response rating, Foxtail, Giant” value ([11]; 125 g ai/ha) was 70. The “Plant response rating, Foxtail, Giant” value ([11]; 500 g ai/ha) was 80, the “Plant response rating, Morningglory” value ([12]; 125 g ai/ha) was 10 and the “Plant response rating, Morningglory” value ([12]; 500 g ai/ha) was 20. For the same compound, the “Plant response rating, Pigweed” value ([13]; 125 g ai/ha) was 0, the “Plant response rating, Pigweed” value ([13]; 500 g ai/ha) was 10 and the “Plant response rating, Velvetleaf” value ([14]; 125 g ai/ha) was 0. For the same compound, the “Plant response rating, Velvetleaf” value ([14]; 500 g ai/ha) was 30, the “Plant response rating, Wheat” value ([15]; 125 g ai/ha) was 0 and the “Plant response rating, Wheat” value ([15]; 500 g ai/ha) was 30. The “Plant response rating, Corn” value (corn (Zea mays) [16]; 125 g ai/ha) was 0, the “Plant response rating, Corn” value (corn (Zea mays) [16]; 500 g ai/ha) was 0 and the “Plant response rating, Rice” value (rice (Oryza sativa); 31 g ai/ha) was 0. The “Plant response rating, Rice” value (rice (Oryza sativa); 62 g ai/ha) was 0, the “Plant response rating, Rice” value (rice (Oryza sativa); 125 g ai/ha) was 0 and the “Plant response rating, Rice” value (rice (Oryza sativa); 250 g ai/ha) was 0. The “Plant response rating, Sedge, Umbrella” value ([17]; 31 g ai/ha) was 0, the “Plant response rating, Sedge, Umbrella” value ([17]; 62 g ai/ha) was 0 and the “Plant response rating, Sedge, Umbrella” value ([17]; 125 g ai/ha) was 0. For the same compound, the “Plant response rating, Sedge, Umbrella” value ([17]; 250 g ai/ha) was 0, the “Plant response rating, Ducksalad” value ([18]; 31 g ai/ha) was 0 and the “Plant response rating, Ducksalad” value ([18]; 62 g ai/ha) was 0. The “Plant response rating, Ducksalad” value ([18]; 125 g ai/ha) was 0, the “Plant response rating, Ducksalad” value ([18]; 250 g ai/ha) was 0 and the “Plant response rating, Barnyardgrass” value ([19]; 31 g ai/ha, scale 0 to 100) was 0. For the same compound, the “Plant response rating, Barnyardgrass” value ([19]; 62 g ai/ha, scale 0 to 100) was 0, the “Plant response rating, Barnyardgrass” value ([19]; 125 g ai/ha, scale 0 to 100) was 0 and the “Plant response rating, Barnyardgrass” value ([19]; 250 g ai/ha, scale 0 to 100 (0 no effect, 100 complete control)) was 0.
